The record followed here is patent US20080241234A1, “PHARMACEUTICAL FORMULATIONS OF AN ANHYDRATE CRYSTAL FORM OF 2-(3-FLUORO-4-HYDROXYPHENYL)-7-VINYL-1,3-BENZOXAZOL-5-OL” (WYETH, priority 2006, published 2008).

This data set can be described thus: Crystal form conversion on suspending and stirring in a solvent at room temperature. The class given is physicochemical. The source says: The anhydrate crystal form (Form E) can be converted to other crystal forms under suitable conditions. […] 6, 2006).

SMILES strings stand for the structures.

`C=Cc1cc(O)cc2nc(-c3ccc(O)c(F)c3)oc12` [Form E, 2-(3-fluoro-4-hydroxyphenyl)-7-vinyl-1,3-benzoxazol-5-ol]: under “suspended and stirred in ethanol or acetone at room temperature for seven days”, the “crystal form obtained after suspension and stirring in ethanol or acetone” value was “another anhydrate crystal form is obtained”. The “crystal form obtained after suspension and stirring in water” value (suspended and stirred in water at room temperature for seven days) is reported as “converted to a hydrate crystal form”.
